Test results taken from US11839616B2, “Ocular pharmaceutical compositions” (THE REGENTS OF THE UNIVERSITY OF CALIFORNIA, priority 2017, dated 2023).
pEC50: −log10 of the molar value. “Also recorded” adds a separate entry of the source. Like-named read-outs stand apart in the source and are kept apart here.

Key:
CFTR [1] = target: T1, CFTR (Oryctolagus cuniculus, UniProt Q00554); experiment: short-circuit current in freshly isolated rabbit conjunctiva, CFTR; assay type: cell-based
T1 construct: ocular surface PD measurements provide information about CFTR function in its native environment; from tissue; host or cells: rabbit ocular surface in vivo (cornea and conjunctiva); freshly isolated rabbit forniceal and palpebral conjunctiva
T1 sequence (Q00554 whole entry): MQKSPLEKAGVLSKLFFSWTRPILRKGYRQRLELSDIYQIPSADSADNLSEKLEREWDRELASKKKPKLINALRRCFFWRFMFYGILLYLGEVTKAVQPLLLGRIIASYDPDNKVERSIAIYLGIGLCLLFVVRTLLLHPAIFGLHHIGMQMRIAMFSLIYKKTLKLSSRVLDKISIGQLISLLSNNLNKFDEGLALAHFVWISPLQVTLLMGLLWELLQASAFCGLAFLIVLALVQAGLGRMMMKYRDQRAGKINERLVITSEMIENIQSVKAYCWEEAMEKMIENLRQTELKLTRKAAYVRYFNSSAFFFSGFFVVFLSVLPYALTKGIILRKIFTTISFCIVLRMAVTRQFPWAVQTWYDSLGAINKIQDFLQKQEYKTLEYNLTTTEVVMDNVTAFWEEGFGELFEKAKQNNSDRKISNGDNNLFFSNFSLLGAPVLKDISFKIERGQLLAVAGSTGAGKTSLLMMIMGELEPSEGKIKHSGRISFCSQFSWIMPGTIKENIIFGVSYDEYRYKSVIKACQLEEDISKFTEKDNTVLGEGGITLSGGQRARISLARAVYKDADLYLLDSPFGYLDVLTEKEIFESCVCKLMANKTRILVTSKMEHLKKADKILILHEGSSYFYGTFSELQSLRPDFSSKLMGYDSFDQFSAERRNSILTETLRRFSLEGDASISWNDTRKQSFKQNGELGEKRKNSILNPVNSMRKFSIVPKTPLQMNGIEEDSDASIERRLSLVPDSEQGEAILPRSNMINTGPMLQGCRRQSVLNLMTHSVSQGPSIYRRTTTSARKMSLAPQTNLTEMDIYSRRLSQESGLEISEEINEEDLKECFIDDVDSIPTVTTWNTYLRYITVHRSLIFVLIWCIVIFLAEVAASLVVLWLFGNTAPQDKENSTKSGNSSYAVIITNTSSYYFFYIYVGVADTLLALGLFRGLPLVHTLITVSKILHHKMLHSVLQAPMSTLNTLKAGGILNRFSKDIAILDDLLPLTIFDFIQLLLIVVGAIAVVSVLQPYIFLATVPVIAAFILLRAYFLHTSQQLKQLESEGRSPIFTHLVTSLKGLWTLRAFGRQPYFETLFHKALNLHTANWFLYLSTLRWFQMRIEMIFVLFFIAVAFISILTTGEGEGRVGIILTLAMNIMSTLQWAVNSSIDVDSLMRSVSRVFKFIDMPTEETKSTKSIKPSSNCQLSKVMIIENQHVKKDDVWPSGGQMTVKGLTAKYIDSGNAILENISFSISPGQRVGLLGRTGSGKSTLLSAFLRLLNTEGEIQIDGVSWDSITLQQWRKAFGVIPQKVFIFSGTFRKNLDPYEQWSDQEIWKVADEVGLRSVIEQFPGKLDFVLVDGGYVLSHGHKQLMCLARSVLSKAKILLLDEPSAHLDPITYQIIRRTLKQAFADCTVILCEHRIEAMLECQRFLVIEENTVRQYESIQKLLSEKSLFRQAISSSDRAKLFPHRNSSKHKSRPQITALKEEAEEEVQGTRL
Protocol: Short-circuit current was measured in freshly isolated rabbit conjunctiva, as described^16 with modification. Rabbits were euthanized by injection of 150 mg/kg euthasol into the marginal ear vein. The entire eyeball with eyelids intact was removed from the orbit to preserve conjunctival epithelium integrity. Within 10 min a sheet of forniceal and palpebral conjunctiva was dissected, mounted onto a P2304 tissue slider (Physiologic Instruments, San Diego, CA), and placed into the Ussing chamber. The apical and basolateral chambers contained (in mM): 120 NaCl, 3 KCl, 1 CaCl2, 1 MgCl2, 10 glucose, 25 NaHCO3 and 5 HEPES, pH 7.4. […] Hemichambers were connected to a DVC-1000 voltage clamp (World Precision Instruments Inc., Sarasota, FL) via Ag/AgCl electrodes and 3 M KCl agar bridges.
In separate electrophysiological studies, CFTR activation was measured in freshly isolated conjunctiva ex vivo by short-circuit current analysis.

CFTR [2] = target: T1, CFTR; experiment: open-circuit ocular surface potential difference (PD) in anesthetized rabbits, CFTR; assay type: in vivo; details: rabbit
Protocol: Open-circuit transepithelial potential difference (PD, in mV) at the ocular surface was measured continuously in anesthetized rabbits using a procedure modified from that established in mice. […] Rabbits were intubated and anesthetized with isoflurane, and respiratory rate, blood pressure and body temperature were monitored. For PD recording, solutions (see below) were serially perfused at 10 mL/min through PE-90 plastic tubing using a gravity multi-reservoir pinch-valve system (ALA Scientific, Westbury, NY) and a variable-flow peristaltic pump (medium flow model; Thermo Fisher Scientific, Fair Lawn, NJ). A probe catheter was fixed onto an adjustable stereotaxic frame with the tip immersed in solution contacting the ocular surface. Excess fluid was aspirated by continuous suction (low-powered wall vacuum) using ⅛-inch tubing (inner diameter 3/32 inch) positioned 3 mm from the orbit in order to maintain near-constant perfusate volume in contact with cornea, bulbar conjunctiva and palpebral conjunctiva without fluid runoff. The measuring electrode contacted the perfusion catheter and was connected to a high-impedance voltmeter (IsoMilivolt Meter; World Precision Instruments, Sarasota, FL). The reference electrode was grounded using a winged, 25-gauge needle filled with normal saline inserted subcutaneously in the abdomen. The measuring and reference electrodes consisted of Ag/AgCl with 3 M KCl agar bridges.
All solutions contained 10 M indomethacin to prevent CFTR activation by prostaglandins.

CFTR [3] = target: CFTR (Homo sapiens, UniProt P13569); details: cited from earlier work; for extent of CFTR activation / pEC50: cell cultures; for pEC50: read-out: EC50 of CFTR activation
Chain of CFTR (Homo sapiens, UniProt P13569) (P13569 whole entry, species assumed): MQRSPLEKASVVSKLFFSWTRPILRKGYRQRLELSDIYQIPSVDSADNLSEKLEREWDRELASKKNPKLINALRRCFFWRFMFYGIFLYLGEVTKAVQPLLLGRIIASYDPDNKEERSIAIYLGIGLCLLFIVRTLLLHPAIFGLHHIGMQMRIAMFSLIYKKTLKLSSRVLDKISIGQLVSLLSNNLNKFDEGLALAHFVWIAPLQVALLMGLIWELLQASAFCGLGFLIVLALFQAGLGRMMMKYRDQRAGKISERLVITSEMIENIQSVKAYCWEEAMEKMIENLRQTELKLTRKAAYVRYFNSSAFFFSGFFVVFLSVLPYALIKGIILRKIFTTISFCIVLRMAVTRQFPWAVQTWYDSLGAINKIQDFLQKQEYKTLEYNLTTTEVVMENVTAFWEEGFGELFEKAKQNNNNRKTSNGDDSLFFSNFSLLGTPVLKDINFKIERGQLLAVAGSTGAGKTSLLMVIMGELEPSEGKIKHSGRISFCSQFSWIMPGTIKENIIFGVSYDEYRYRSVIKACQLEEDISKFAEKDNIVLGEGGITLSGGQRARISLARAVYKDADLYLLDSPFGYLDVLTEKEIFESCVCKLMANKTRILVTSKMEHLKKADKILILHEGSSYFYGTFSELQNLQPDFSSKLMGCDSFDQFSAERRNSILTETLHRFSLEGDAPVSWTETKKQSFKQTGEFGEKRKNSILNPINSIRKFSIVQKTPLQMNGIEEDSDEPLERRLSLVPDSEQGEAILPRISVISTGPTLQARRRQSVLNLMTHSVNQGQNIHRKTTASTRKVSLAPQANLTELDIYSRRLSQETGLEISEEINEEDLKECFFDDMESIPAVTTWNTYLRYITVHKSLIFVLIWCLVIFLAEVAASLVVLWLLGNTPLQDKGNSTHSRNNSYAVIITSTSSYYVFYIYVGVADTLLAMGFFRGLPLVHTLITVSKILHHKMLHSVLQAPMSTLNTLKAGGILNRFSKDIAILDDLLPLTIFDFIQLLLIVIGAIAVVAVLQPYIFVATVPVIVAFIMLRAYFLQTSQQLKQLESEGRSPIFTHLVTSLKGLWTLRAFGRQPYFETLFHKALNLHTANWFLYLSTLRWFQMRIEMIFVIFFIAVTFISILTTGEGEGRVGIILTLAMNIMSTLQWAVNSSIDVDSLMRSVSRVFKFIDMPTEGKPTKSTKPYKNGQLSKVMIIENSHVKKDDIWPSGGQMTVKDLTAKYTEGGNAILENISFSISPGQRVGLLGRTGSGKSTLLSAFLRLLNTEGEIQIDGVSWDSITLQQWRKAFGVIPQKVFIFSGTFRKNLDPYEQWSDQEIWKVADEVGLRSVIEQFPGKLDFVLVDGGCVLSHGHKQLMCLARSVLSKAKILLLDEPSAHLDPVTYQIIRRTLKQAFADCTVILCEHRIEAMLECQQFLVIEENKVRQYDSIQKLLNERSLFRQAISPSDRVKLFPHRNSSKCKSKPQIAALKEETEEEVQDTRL

mice [4] = details: cited from earlier work
mice [5] = details: lacrimal gland ablation, three times daily; cited from earlier work
P2Y2 receptors = P2Y2 receptors (Homo sapiens, UniProt P41231); details: phase III trials in the United States; cited from earlier work
Chain of P2Y2 receptors (P41231 whole entry): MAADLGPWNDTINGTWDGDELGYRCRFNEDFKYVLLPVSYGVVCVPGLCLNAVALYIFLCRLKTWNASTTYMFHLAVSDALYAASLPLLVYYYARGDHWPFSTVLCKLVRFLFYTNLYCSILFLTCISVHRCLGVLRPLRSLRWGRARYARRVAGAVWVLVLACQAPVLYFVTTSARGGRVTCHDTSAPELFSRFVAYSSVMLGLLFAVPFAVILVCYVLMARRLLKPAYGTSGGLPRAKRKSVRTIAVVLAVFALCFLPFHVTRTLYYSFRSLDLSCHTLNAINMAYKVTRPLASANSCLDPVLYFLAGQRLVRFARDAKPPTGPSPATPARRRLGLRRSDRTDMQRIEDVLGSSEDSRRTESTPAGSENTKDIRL

rabbits [6] = experiment: chronic administration, tear volume by STT; assay type: in vivo; details: rabbit, 3 nmol twice-daily for 28 days
Protocol: (§1) Tear production was measured using the anesthetized Schirmer Tear Test (STT, Eagle Vision, Memphis TN). To minimize reflex tearing, one drop of 0.5% proparacaine hydrochloride (Akorn, Lake Forest, TL) was placed onto the corneal surface and excess fluid was absorbed at the medial canthus using eye spear sponges (Fine Science Tools, Foster City, CA). After 5 min the notched strip was inserted into the lower lateral conjunctival fornix, maintaining contact with the lateral cornea. The wetted length (mm) of the strip indicated by blue dye appearance was read after 5 min.
In chronic treatment studies, Compound A (3 nmol, or formulation control) was given twice daily (8 am and 4 pm) for 28 days. Two mL of blood was collected from the marginal ear vein in EDTA tubes. Rabbits were then euthanized using 150 mg/kg euthasol, and ocular tissues, serum and peripheral organs were collected. […]
In chronic treatment studies, eyes were treated twice daily for 28 days as described above. STT, intraocular pressure (IOP), and central corneal thickness were measured on days 0, 7, 14, 21 and 28. […] IOP was measured with a Tonolab rebound tonometer (Colonial Medical Supply, Windham, NH). Central corneal thickness was measured using the Corneo-Gage Plus 2 pachymeter (Sonogage Inc., Cleveland, OH). […]

rabbits [7] = experiment: Schirmer Tear Test II after single topical dose (pharmacodynamics); assay type: in vivo, rabbit
Protocol: as §1
Serial STT measurements were done before and at 1, 3, 6, 9, 12 and 24 hours following application of a single 30-μL drop of Compound A formulation (or vehicle alone) into the conjunctival sac. Both eyes received the same treatment to control for potential contralateral effects of a given treatment. Pharmacokinetics and Tissue Distribution
Compound A was tested for its efficacy in augmenting tear fluid production in rabbits. Prior work identified a formulation (0.325% CMC in Ringer's solution containing 0.015% BAC and 1% DMSO) that stably solubilized Compound A and was effective when delivered topically to mice.^15 A single application of 3 nmol Compound A ([…] of a 100 µM solution) increased tear volume by ˜60% for at least 9 hours compared to vehicle (FIG. 3A). […] When 3 nmol of Compound A was delivered in a more viscous formulation containing 0.625% (instead of 0.3%) CMC, to potentially increase Compound A ocular surface residence time, compound efficacy was unchanged (FIG. 3C).

rabbits [8] = experiment: chronic administration, ocular toxicity (clinical examination, histology); assay type: in vivo; details: rabbit
Protocol: In chronic treatment studies, eyes were treated twice daily for 28 days as described above. STT, intraocular pressure (IOP), and central corneal thickness were measured on days 0, 7, 14, 21 and 28. Slit lamp examinations were performed on days 0, 14 and 28 by a board-certified ophthalmologist blinded to treatment status. STT was done one hour after the first treatment of the day (9 am). IOP was measured with a Tonolab rebound tonometer (Colonial Medical Supply, Windham, NH). Central corneal thickness was measured using the Corneo-Gage Plus 2 pachymeter (Sonogage Inc., Cleveland, OH). […] One minute later, photographs of the eye were taken with a digital camera and staining was evaluated according to a 12-point scale as described^17: each corneal quadrant was scored in a blinded fashion on a 3-point scale: grade 0, no staining; grade 1, sporadic staining (involving <25% of the total surface); grade 2, diffuse punctate staining (25-75%); and grade 3, coalesced punctate staining (≥75%). The total grade is reported as the sum of scores from all 4 quadrants, ranging from 0 to 12. Conjunctival congestion, chemosis, discharge, corneal haze or neovascularization, anterior chamber cellular reaction or flare, iris neovascularization, lens opacification or loss of red reflex, were each rated using a modified McDonald-Shadduck scale on a four-point scale, where zero is normal.
A subset of chronically treated eyes were enucleated with eyelids intact after transcardial perfusion with PBS followed by 4% paraformaldehyde, and left overnight in 4° C. in 30% sucrose. […] Cryosections (8 μm thickness) were stained with hematoxylin and eosin (H&E) using a standard protocol.

[9] = pharmacokinetics in tear fluid by LC/MS; assay type: in vivo; details: rabbit
Protocol: Compound A was quantified by liquid chromatography/mass spectroscopy (LC/MS) at 15 min, 1 hour, 2 hours, 6 hours and 24 hours after a single, 3-nmol topical dose. To recover Compound A at indicated times, three eye washes of 30 μL sterile PBS were done with solution recovered from the lateral and medial canthi after manual eyelid blinking using 50-μL glass capillary tubes. Pooled washes were diluted in three volumes of ethyl acetate, centrifuged at 13,000 rpm for 15 min, and the collected supernatant was analyzed by LC/MS (Waters 2695 HPLC with Micromass ZQ).^14 LC was done on an Xterra MS C18 column (2.1 mm×100 mm, 3.5 μm) with 0.2 mL/min water/acetonitrile containing 0.1% formic acid, 12 min linear gradient, 5-95% acetonitrile.
Corresponding compound concentrations in tear fluid (open circles, right ordinate) were estimated using tear volumes deduced from STT measurements in FIG. 2A.

CFTR-deficient mice = details: cited from earlier work
[10] = tissue levels by LC/MS following chronic administration; assay type: in vivo; details: rabbit, 3 nmol twice-daily for 28 days
Protocol: In chronic treatment studies, Compound A (3 nmol, or formulation control) was given twice daily (8 am and 4 pm) for 28 days. Two mL of blood was collected from the marginal ear vein in EDTA tubes. Rabbits were then euthanized using 150 mg/kg euthasol, and ocular tissues, serum and peripheral organs were collected. Using a surgical microscope, 150 μL of aqueous humor was collected through the peripheral cornea using a 25-gauge needle, and 300 μL of vitreous fluid was aspirated through the pars plana with a 23-gauge needle. Following transcardial perfusion with heparinized phosphate-buffered saline (PBS), eyes were enucleated with lids intact, and the cornea, iris/ciliary body, lens, bulbar, forniceal and palpebral conjunctiva, and retina of both eyes were dissected, weighed, homogenized in 1:4 mixture of water:ethyl acetate (10 mL/1 g tissue) and centrifuged (3000 rpm for 15 min). Plasma, aqueous and vitreous samples were each mixed with 3 volumes of ethyl acetate and centrifuged for 15 min at 13,200 rpm, and the supernatant was evaporated and re-dissolved in HPLC eluent (100 μL of 1:3 water:acetonitrile containing 0.1% formic acid) for LC/MS analysis. Also, brain, kidney, heart and liver were removed, weighed, mixed with 1:4 mixture of water:ethyl acetate (10 mL/1 g tissue), and homogenized. The homogenized samples were vortexed and centrifuged (3000 rpm for 15 min), and the ethyl acetate-containing supernatant was evaporated, and then re-dissolved in HPLC eluent for LC/MS analysis. The lower limit of detection for Compound A was ˜0.2 pg/mg of homogenized tissue or biological fluid, which was defined as giving a signal-to-noise ratio >3.

cAMP = details: prior studies; cited from earlier work
[11] = liver; in vitro microsomal stability; cited from earlier work
ENaC [12] = experiment: short-circuit current in freshly isolated rabbit conjunctiva, amiloride; details: amiloride 10 μM
Protocol: Short-circuit current was measured in freshly isolated rabbit conjunctiva, as described^16 with modification. Rabbits were euthanized by injection of 150 mg/kg euthasol into the marginal ear vein. The entire eyeball with eyelids intact was removed from the orbit to preserve conjunctival epithelium integrity. Within 10 min a sheet of forniceal and palpebral conjunctiva was dissected, mounted onto a P2304 tissue slider (Physiologic Instruments, San Diego, CA), and placed into the Ussing chamber. The apical and basolateral chambers contained (in mM): 120 NaCl, 3 KCl, 1 CaCl2, 1 MgCl2, 10 glucose, 25 NaHCO3 and 5 HEPES, pH 7.4. Solutions were bubbled with 95% O2/5% CO2 and maintained at 37° C. Hemichambers were connected to a DVC-1000 voltage clamp (World Precision Instruments Inc., Sarasota, FL) via Ag/AgCl electrodes and 3 M KCl agar bridges.

ENaC [13] = experiment: open-circuit ocular surface potential difference (PD) in anesthetized rabbits, ENaC; details: rabbit, normal Cl- solution with amiloride 100 μM
Protocol: Open-circuit transepithelial potential difference (PD, in mV) at the ocular surface was measured continuously in anesthetized rabbits using a procedure modified from that established in mice. […] Rabbits were intubated and anesthetized with isoflurane, and respiratory rate, blood pressure and body temperature were monitored. For PD recording, solutions (see below) were serially perfused at 10 mL/min through PE-90 plastic tubing using a gravity multi-reservoir pinch-valve system (ALA Scientific, Westbury, NY) and a variable-flow peristaltic pump (medium flow model; Thermo Fisher Scientific, Fair Lawn, NJ). A probe catheter was fixed onto an adjustable stereotaxic frame with the tip immersed in solution contacting the ocular surface. Excess fluid was aspirated by continuous suction (low-powered wall vacuum) using ⅛-inch tubing (inner diameter 3/32 inch) positioned 3 mm from the orbit in order to maintain near-constant perfusate volume in contact with cornea, bulbar conjunctiva and palpebral conjunctiva without fluid runoff. The measuring electrode contacted the perfusion catheter and was connected to a high-impedance voltmeter (IsoMilivolt Meter; World Precision Instruments, Sarasota, FL). The reference electrode was grounded using a winged, 25-gauge needle filled with normal saline inserted subcutaneously in the abdomen. […]

[14] = 25 picomol topical administration
[15] = rabbit, single topical dose of 3 nmol

3-[(3-Trifluoromethyl)phenyl]-5-[(4-carboxyphenyl)methylene]-2-thioxo-4-thiazolidinone [CFTRinh-172, reference compound]
effect on the increases in short-circuit current (CFTR [1]; inhibitor added last): inhibited | effect on the PD changes (CFTR [2]; CFTRinh-172 10 μM in final perfusion solution): largely reversed

CCN(CC)c1nc(Nc2ccccc2)nc(OC(C(F)(F)F)C(F)(F)F)n1 [Compound C]
extent of CFTR activation (CFTR [3]): fully activated CFTR | pEC50 (CFTR [3]): ~7.52 | duration of increase in tear volume (mice [4]; [14]): 8 h | tear volume (mice [4]; [14]): sustained increase in tear volume | corneal epithelial disruption (mice [5]): prevented corneal epithelial disruption | pathology when administered after development of dry eye (mice [5]): reversed pathology | tear volume (mice [5]): normalized tear volume

O=c1ccn([C@@H]2O[C@H](COP(=O)(O)OP(=O)(O)OP(=O)(O)OP(=O)(O)OC[C@H]3O[C@@H](n4ccc(=O)[nH]c4=O)[C@H](O)[C@@H]3O)[C@@H](O)[C@H]2O)c(=O)[nH]1 [diquafosol]
efficacy in dry eye (P2Y2 receptors): did not show efficacy

CNc1nc(Nc2ccccc2)nc(OCC(F)(F)C(F)F)n1 [Compound A, N-Methyl-N′-phenyl-6-(2,2,3,3-tetrafluoropropoxy)-1,3,5-triazine-2,4-diamine]
change in short-circuit current (CFTR [1]; 1 and then 10 μM Compound A after forskolin 25 nM): further increased | pEC50 (CFTR [1]; rabbit conjunctiva ex vivo, data at 1 vs. 10 μM, read-out: apparent EC50 of CFTR activation (short-circuit current)): > 6.00 | tear volume (STT) (rabbits [6]): augmented tear volume in a sustained fashion without tachyphylaxis | extent of CFTR activation (CFTR [3]): fully activated CFTR | pEC50 (CFTR [3]): ~6.60 | potency of CFTR activation (CFTR [3]; prior studies): nanomolar potency | increase in tear fluid volume (rabbits [7]; from STT wetting using reported relationship between STT wetting and volume): 2.7 µL | compound efficacy in more viscous formulation (rabbits [7]; rabbit, 3 nmol, 0.625% (instead of 0.3%) CMC): unchanged | increase in tear volume compared to vehicle (rabbits [7]; rabbit, single application of 3 nmol, 0.3% CMC): ~60% | tear production (rabbits [7]; rabbit, single dose 0.75 nmol): no significant increase | activity on tear production (rabbits [7]; rabbit, single dose 1.5 nmol): reduced duration of activity | augmentation in tear production by STT, average over 9 hours (rabbits [7]; [15]): 5.3 mm | duration of increase in tear volume / tear secretion (rabbits [7]; [15]): at least 9 hours | IOP, vehicle vs. treated eyes (rabbits [8]; 3 nmol twice-daily for 28 days): No significant differences | Lissamine green staining (rabbits [8]; 3 nmol twice-daily for 28 days): no injury to the ocular surface | central corneal thickness, vehicle vs. treated eyes (rabbits [8]; 3 nmol twice-daily for 28 days): No significant differences | slit-lamp evaluation (rabbits [8]; 3 nmol twice-daily for 28 days): no evidence of conjunctival hyperemia, anterior chamber inflammation, or lens opacification | histology of cornea, conjunctiva, lens, ciliary body, retina (rabbits [8]; day 28): no pathological changes | acute ocular irritation (blinking, behavior) (rabbits [8]; following topical administrations): No apparent acute ocular irritation | time at predicted therapeutic concentrations in tear fluid ([9]; 3-nmol dose, concentrations estimated using tear volumes from STT): at least several hours | Compound A recovered from tear fluid over time ([9]; single topical dose of 3 nmol, three eye washes): approximate exponential decline | time to maximal CFTR activation at the ocular surface (PD) (CFTR [2]; after exposure): within a few minutes | change in ocular surface PD (CFTR [2]; low Cl- + amiloride, Compound A 1 and 10 μM): substantial depolarization | effect in CFTR-deficient mice (CFTR-deficient mice): without effect; also recorded: absence of Compound A effect | level in aqueous and vitreous fluid, lens and iris/ciliary body [10]: near or below the limit of detection | level in blood, heart, brain, liver and kidney [10]: below the limit of detection | level in vitreous fluid [10]: not detected | rank of levels in ocular tissues [10]: cornea>conjunctiva>>retina | concentration at 28 days ([10]; retina, topical, read-out: level in retina, equivalent concentration): < 10 nM | elevation of total cellular cAMP (cAMP): without detectable elevation | hepatic metabolism [11]: rapidly metabolized by the liver; also recorded: rapid predicted hepatic metabolism | duration of doubled tear volume (mice [4]; delivered topically): four | tear volume (mice [4]; delivered topically): doubled tear volume

N=C(N)NC(=O)c1nc(Cl)c(N)nc1N [amiloride]
effect on short-circuit current (ENaC [12]): no effect | change in ocular surface PD (ENaC [13]): initial depolarization
